Experimental findings from patent US8703805B2 (Exelixis Patent Company LLC, priority 2005, dated 2014) are described below.

The test relates to LXRα and/or LXRβ. Put plainly: LXR/LXRE co-transfection assay (luciferase reporter, CV-1 cells). The following applies: IC50 or EC50 for LXR (LXRα and/or LXRβ, not distinguished), tested as described in Example 109, CV-1 cells. Format: cell-based, human. Summed up: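 Luciferase readout after 20 h compound exposure at 37 °C in CV-1 cells transiently expressing human LXRα or LXRβ with RXRα and an LXRE-driven reporter. Dose-response over 8 points at ½-log spacing, 4 wells each, fitted for EC50/IC50; values average ≥3 independent experiments, efficacy as % of high control.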

The term EC50 denotes the concentration giving half of the maximal effect. A low value points to greater potency.

Structures are written as SMILES.

Regarding `CS(=O)(=O)c1cccc(-c2ccc(-n3nc(C(O)(C(F)(F)F)C(F)(F)F)cc3-c3ccccc3Cl)cc2)c1` [Example 1225, 2-{5-(2-chlorophenyl)-1-[3′-(methylsulfonyl)biphenyl-4-yl]-1H-pyrazol-3-yl}-1,1,1,3,3,3-hexafluoropropan-2-ol], the EC50 is under 1000 nM.

The compound `CC(C)(O)c1cccc(-n2nc(C(C)(C)O)cc2-c2ccc(-c3cccc(S(C)(=O)=O)c3)s2)c1` [Example 1226, 2-{3-[3-(1-hydroxy-1-methylethyl)-5-{5-[3-(methylsulfonyl)phenyl]-2-thienyl}-1H-pyrazol-1-yl]phenyl}propan-2-ol] showed an EC50 of 1000 to 10000 nM.

In turn, `CS(=O)(=O)c1cccc(-c2ccc(-c3cc(C(F)(F)F)nn3-c3c(Cl)cccc3Cl)s2)c1` [Example 1227, 1-(2,6-dichlorophenyl)-5-{5-[3-(methylsulfonyl)phenyl]-2-thienyl}-3-(trifluoromethyl)-1H-pyrazole] gave an EC50 of under 1000 nM.

The compound `CS(=O)(=O)c1cccc(-c2ccc(-c3cc(C4(O)CCCC4)nn3-c3ccccc3Cl)s2)c1` [Example 1228, 1-[1-(2-chlorophenyl)-5-{5-[3-(methylsulfonyl)phenyl]-2-thienyl}-1H-pyrazol-3-yl]cyclopentanol] had an EC50 of under 1000 nM.

Regarding `CC(C)(O)c1ccccc1-n1nc(C(F)(F)F)cc1-c1ccc(-c2cccc(S(C)(=O)=O)c2)s1` [Example 1229], the EC50 is under 1000 nM.

In the case of `COC(=O)c1cc(-c2ccccc2Cl)n(-c2ccc(-c3cccc(S(C)(=O)=O)c3)cn2)n1` [Example 1230, methyl 5-(2-chlorophenyl)-1-{5-[3-(methylsulfonyl)phenyl]pyridin-2-yl}-1H-pyrazole-3-carboxylate], the EC50 lay in the range of 1000 to 10000 nM.

As for `CS(=O)(=O)c1cccc(-c2ccc(-n3nc(C(F)(F)F)cc3-c3ccccc3C(F)(F)F)nc2)c1` [Example 1231, 5-[3-(methylsulfonyl)phenyl]-2-{3-(trifluoromethyl)-5-[2-(trifluoromethyl)phenyl]-1H-pyrazol-1-yl}pyridine], the EC50 was under 1000 nM.

For the compound `CS(=O)(=O)c1cccc(-c2ccc(-c3cc(C(=O)NCCc4ccccn4)nn3-c3ccccc3Cl)s2)c1` [Example 1232, 1-(2-chlorophenyl)-5-{5-[3-(methylsulfonyl)phenyl]-2-thienyl}-N-(2-pyridin-2-ylethyl)-1H-pyrazole-3-carboxamide], the EC50 is 1000 to 10000 nM.

On to `CC(C)(O)c1cc(-c2ccccc2Cl)n(-c2ccc(-c3cccc(S(C)(=O)=O)c3)cn2)n1` [Example 1233, 2-[5-(2-chlorophenyl)-1-{5-[3-(methylsulfonyl)phenyl]pyridin-2-yl}-1H-pyrazol-3-yl]propan-2-ol], for which the EC50 was in the range of 1000 to 10000 nM.

`COC(=O)c1cc(-c2cc(-c3cccc(S(C)(=O)=O)c3)co2)n(-c2ccccc2Cl)n1` [Example 1234, methyl 1-(2-chlorophenyl)-5-{4-[3-(methylsulfonyl)phenyl]furan-2-yl}-1H-pyrazole-3-carboxylate] registered an EC50 of under 1000 nM.

`CC(C)(O)c1cc(-c2cc(-c3cccc(S(C)(=O)=O)c3)co2)n(-c2ccccc2Cl)n1` [Example 1235, 2-[1-(2-chlorophenyl)-5-{4-[3-(methylsulfonyl)phenyl]furan-2-yl}-1H-pyrazol-3-yl]propan-2-ol] showed an EC50 of 1000 to 10000 nM.

In turn, `CS(=O)(=O)c1cccc(-c2ccc(-c3cc(C(=O)NCC(F)(F)F)nn3-c3ncccc3C(F)(F)F)s2)c1` [Example 1236, 5-{5-[3-(methylsulfonyl)phenyl]-2-thienyl}-N-(2,2,2-trifluoroethyl)-1-[3-(trifluoromethyl)pyridin-2-yl]-1H-pyrazole-3-carboxamide] came in with an EC50 of 1000 to 10000 nM.

The compound `CON(C)C(=O)c1cc(-c2ccc(-c3cccc(S(C)(=O)=O)c3)s2)n(-c2ncccc2C(F)(F)F)n1` [Example 1237, N-methyl-N-(methyloxy)-5-{5-[3-(methylsulfonyl)phenyl]-2-thienyl}-1-[3-(trifluoromethyl)pyridin-2-yl]-1H-pyrazole-3-carboxamide] returned an EC50 of 1000 to 10000 nM.

Compound `COC(=O)c1cc(-c2ccc(-c3cccc(S(C)(=O)=O)c3)s2)n(-c2c(Cl)cccc2Cl)n1` [Example 1238, methyl 1-(2,6-dichlorophenyl)-5-{5-[3-(methylsulfonyl)phenyl]-2-thienyl}-1H-pyrazole-3-carboxylate] showed an EC50 of under 1000 nM.

The compound `CC(C)(O)c1cc(-c2ccc(-c3cccc(S(C)(=O)=O)c3)s2)n(-c2c(Cl)cccc2Cl)n1` [Example 1239, 2-[1-(2,6-dichlorophenyl)-5-{5-[3-(methylsulfonyl)phenyl]-2-thienyl}-1H-pyrazol-3-yl]propan-2-ol] had an EC50 of under 1000 nM.

`CC(C)(O)c1cccc(-c2ccc(-c3cc(C(F)(F)F)nn3-c3ccccc3Cl)s2)c1` [Example 1240, 2-(3-{5-[1-(2-chlorophenyl)-3-(trifluoromethyl)-1H-pyrazol-5-yl]-2-thienyl}phenyl)propan-2-ol] gave an EC50 of under 1000 nM.

In the case of `CC(C)(O)c1ccc(-c2ccc(-c3cc(C(F)(F)F)nn3-c3ccccc3Cl)s2)cc1` [Example 1241, 2-(4-{5-[1-(2-chlorophenyl)-3-(trifluoromethyl)-1H-pyrazol-5-yl]-2-thienyl}phenyl)propan-2-ol], the EC50 was 1000 to 10000 nM.

`CC(=O)c1cc(-c2ccc(-c3cccc(S(C)(=O)=O)c3)s2)n(-c2c(Cl)cccc2Cl)n1` [Example 1242, 1-[1-(2,6-dichlorophenyl)-5-{5-[3-(methylsulfonyl)phenyl]-2-thienyl}-1H-pyrazol-3-yl]ethanone] had an EC50 of under 1000 nM.

For `CC(C)(O)c1cc(-c2ccc(-c3cccc(S(C)(=O)=O)c3)s2)n(Cc2ccc(F)cc2F)n1` [Example 1243, 2-(1-[(2,4-difluorophenyl)methyl]-5-{5-[3-(methylsulfonyl)phenyl]-2-thienyl}-1H-pyrazol-3-yl)propan-2-ol], the EC50 is under 1000 nM.

Take `COC(=O)c1cc(-c2ccccc2Cl)n(-c2ccc(-c3cccc(S(C)(=O)=O)c3)nc2)n1` [Example 1244, methyl 5-(2-chlorophenyl)-1-{6-[3-(methylsulfonyl)phenyl]pyridin-3-yl}-1H-pyrazole-3-carboxylate]: the EC50 is 1000 to 10000 nM.

With `CS(=O)(=O)c1cccc(-c2ccc(-c3cc(C4(O)CC4)nn3-c3ccccc3Cl)s2)c1` [Example 1245, 1-[1-(2-chlorophenyl)-5-{5-[3-(methylsulfonyl)phenyl]-2-thienyl}-1H-pyrazol-3-yl]cyclopropanol], the EC50 is under 1000 nM.

Regarding `CC(C)(O)c1cc(-c2ccccc2Cl)n(-c2ccc(-c3cccc(S(C)(=O)=O)c3)nc2)n1` [Example 1246, 2-[5-(2-chlorophenyl)-1-(6-[3-(methylsulfonyl)phenyl]pyridin-3-yl}-1H-pyrazol-3-yl]propan-2-ol], the EC50 lay within 1000 to 10000 nM.

In turn, `CS(=O)(=O)c1cc(-c2ccc(-c3cc(C(F)(F)F)nn3-c3cc(Cl)ccc3Cl)s2)ccc1O` [Example 1247, 4-{5-[1-(2,5-dichlorophenyl)-3-(trifluoromethyl)-1H-pyrazol-5-yl]-2-thienyl}-2-(methylsulfonyl)phenol] came in with an EC50 of 1000 to 10000 nM.

`CC(=O)c1cc(-c2ccccc2Cl)n(-c2ccc(-c3cccc(S(C)(=O)=O)c3)cn2)n1` [Example 1248, 1-[5-(2-chlorophenyl)-1-(5-[3-(methylsulfonyl)phenyl]pyridin-2-yl}-1H-pyrazol-3-yl]ethanone] showed an EC50 of 1000 to 10000 nM.

For the compound `CC(=O)c1cc(-c2ccccc2Cl)n(-c2ccc(-c3cccc(S(C)(=O)=O)c3)nc2)n1` [Example 1249, 1-[5-(2-chlorophenyl)-1-{6-[3-(methylsulfonyl)phenyl]pyridin-3-yl}-1H-pyrazol-3-yl]ethanone], the EC50 lay within 1000 to 10000 nM.

`CC(C)(O)c1cc(-c2cc(-c3cccc(S(C)(=O)=O)c3)cs2)n(-c2ccccc2Cl)n1` [Example 1250, 2-[1-(2-chlorophenyl)-5-{4-[3-(methylsulfonyl)phenyl]-2-thienyl}-1H-pyrazol-3-yl]propan-2-ol] came in with an EC50 of 1000 to 10000 nM.

Regarding `Cc1ccc(-n2nc(C(F)(F)F)cc2-c2ccc(-c3cccc(S(C)(=O)=O)c3)s2)c(Cl)c1O` [Example 1251, 2-chloro-6-methyl-3-[5-{5-[3-(methylsulfonyl)phenyl]-2-thienyl}-3-(trifluoromethyl)-1H-pyrazol-1-yl]phenol], the EC50 lay within 1000 to 10000 nM.

The compound `CC(C)(O)c1cccc(-c2ccc(-c3cc(C(F)(F)F)nn3-c3ncccc3C(F)(F)F)s2)c1` [Example 1252, 2-[3-(5-{3-(trifluoromethyl)-1-[3-(trifluoromethyl)pyridin-2-yl]-1H-pyrazol-5-yl}-2-thienyl)phenyl]propan-2-ol] returned an EC50 of 1000 to 10000 nM.

Compound `CC(C)(O)c1ccc(-c2ccc(-c3cc(C(F)(F)F)nn3-c3ncccc3C(F)(F)F)s2)cc1` [Example 1253, 2-[4-(5-{3-(trifluoromethyl)-1-[3-(trifluoromethyl)pyridin-2-yl]-1H-pyrazol-5-yl}-2-thienyl)phenyl]propan-2-ol] gave an EC50 of 1000 to 10000 nM.

`CS(=O)(=O)c1cc(-c2ccc(-c3cc(C(F)(F)F)nn3-c3cc(Cl)ccc3Cl)s2)ccc1OCCO` [Example 1255, 2-{[4-{5-[1-(2,5-dichlorophenyl)-3-(trifluoromethyl)-1H-pyrazol-5-yl]-2-thienyl}-2-(methylsulfonyl)phenyl]oxy}ethanol] showed an EC50 of 1000 to 10000 nM.

The compound `CC(C)(O)c1cc(-c2ccc(-c3cccc(S(C)(=O)=O)c3)s2)n(-c2cccc(Cl)c2)n1` [Example 1256, 2-[1-(3-chlorophenyl)-5-{5-[3-(methylsulfonyl)phenyl]-2-thienyl}-1H-pyrazol-3-yl]propan-2-ol] had an EC50 of 1000 to 10000 nM.

`CC(C)(O)c1cc(-c2ccc(-c3cccc(S(C)(=O)=O)c3)s2)n(-c2ccc(Cl)cc2)n1` [Example 1257, 2-[1-(4-chlorophenyl)-5-{5-[3-(methylsulfonyl)phenyl]-2-thienyl}-1H-pyrazol-3-yl]propan-2-ol] had an EC50 of 1000 to 10000 nM.
